Assay [1] has as its system class IIa HDACs in HEL cells. The conditions noted are these: Boc-Lys (triflouroacetyl)-AMC substrate, n ≥ 2.
For assay [2], the system named is class I HDACs in HEL cells. The conditions noted are these: Boc-Lys (acetyl)-AMC substrate, n ≥ 2.

Two compounds from article PMC5994915 (Bioorganic & medicinal chemistry, 2017) can be followed below.

As to `Nc1ccccc1NC(=O)c1ccc(NC(=O)CN2C(=O)C3(OCCCO3)c3cc(Br)ccc32)cc1` [9a, N-(2-aminophenyl)-4-(2-(5-bromo-2-oxospiro[indoline-3,2′-[1,3]dioxan]-1-yl)acetamido)ben-zamide], the “HDAC class IIa cellular IC50” value in assay [1] was “not active”. For the same compound, in assay [2], the “HDAC class I cellular IC50” value was “not active”.

Regarding `Nc1ccc(-c2cccs2)cc1NC(=O)c1ccc(CNC(=O)CN2C(=O)C3(OCCCO3)c3cc(Cl)ccc32)cc1` [23a, N-(2-Amino-5-(thiophen-2-yl)phenyl)-4-((2-(5-chloro-2-oxospiro[indoline-3,2′-[1,3]dioxan]-1-yl)acetamido)methyl)benza-mide], the “HDAC class IIa cellular IC50” value in assay [1] is “not active”. Further, the “HDAC class I cellular IC50” value in assay [2] is “not active”.
